In PubChem BioAssay (NCI):
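Growth conditions: 96-well plates. Treatment: test compound, 48 hours, 5 concentrations. Analysis: linear interpolation between bracketing concentrations; unreached endpoints set to highest concentration. GI50: concentration for 50% inhibition of growth. At the TGI there is no net growth.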

How the values were obtained:
Assay in all cases: NCI anticancer screen, dose series, 48 h
PC-3 prostate = system: PC-3 prostate
MDA-MB-435 = system: MDA-MB-435
NCI-H460 lung = system: NCI-H460 lung
MCF7 breast = system: MCF7 breast
SK-MEL-5 melanoma = system: SK-MEL-5 melanoma
HCT-116 colon = system: HCT-116 colon
KM12 colon = system: KM12 colon
SF-539 CNS = system: SF-539 CNS
EKVX NSCLC = system: EKVX NSCLC
SK-OV-3 ovarian = system: SK-OV-3 ovarian
OVCAR-3 ovarian = system: OVCAR-3 ovarian
NCI-H226 lung = system: NCI-H226 lung
SK-MEL-28 melanoma = system: SK-MEL-28 melanoma
CAKI-1 renal = system: CAKI-1 renal
MDA-MB-231 breast = system: MDA-MB-231 breast
HCC-2998 colon = system: HCC-2998 colon
SNB-19 CNS = system: SNB-19 CNS
UACC-257 melanoma = system: UACC-257 melanoma
T-47D breast = system: T-47D breast
HT29 colon = system: HT29 colon
UACC-62 melanoma = system: UACC-62 melanoma
K-562 leukemia = system: K-562 leukemia
M14 melanoma = system: M14 melanoma
RXF 393 renal = system: RXF 393 renal
NCI-H522 lung = system: NCI-H522 lung
A498 renal = system: A498 renal
HL-60(TB) leukemia = system: HL-60(TB) leukemia
ACHN renal = system: ACHN renal
SF-268 CNS = system: SF-268 CNS
BT-549 breast = system: BT-549 breast
TK-10 renal = system: TK-10 renal
DU-145 prostate = system: DU-145 prostate
SN12C renal = system: SN12C renal
UO-31 renal = system: UO-31 renal
SR leukemia = system: SR leukemia
HCT-15 colon = system: HCT-15 colon
HOP-92 NSCLC = system: HOP-92 NSCLC
SF-295 CNS = system: SF-295 CNS
MALME-3M melanoma = system: MALME-3M melanoma
MOLT-4 leukemia = system: MOLT-4 leukemia
SNB-75 CNS = system: SNB-75 CNS
HOP-62 NSCLC = system: HOP-62 NSCLC
COLO 205 colon = system: COLO 205 colon
OVCAR-5 ovarian = system: OVCAR-5 ovarian
SW-620 colon = system: SW-620 colon
786-0 renal = system: 786-0 renal

Structure (SMILES): O=C1c2[nH]cc(CN3CCNCC3)c2C(=O)c2c1c(O)c1ccccc1c2O
- GI50 (PC-3 prostate): 1.83 µM
- TGI (PC-3 prostate): 4.41 µM
- GI50 (MDA-MB-435): 2.54 µM
- TGI (MDA-MB-435): 4.59 µM
- GI50 (NCI-H460 lung): 18.5 µM
- TGI (NCI-H460 lung): > 78.3 µM
- GI50 (MCF7 breast): 32.9 µM
- TGI (MCF7 breast): > 100 µM
- GI50 (SK-MEL-5 melanoma): 1.64 µM
- TGI (SK-MEL-5 melanoma): 3.14 µM
- GI50 (HCT-116 colon): 1.07 µM
- TGI (HCT-116 colon): 2.25 µM
- GI50 (KM12 colon): 20.9 µM
- TGI (KM12 colon): 53 µM
- GI50 (SF-539 CNS): 1.85 µM
- TGI (SF-539 CNS): 3.31 µM
- GI50 (EKVX NSCLC): 0.769 µM
- TGI (EKVX NSCLC): 2.49 µM
- GI50 (SK-OV-3 ovarian): 5.76 µM
- TGI (SK-OV-3 ovarian): 27.7 µM
- GI50 (OVCAR-3 ovarian): 1.77 µM
- TGI (OVCAR-3 ovarian): 4.05 µM
- GI50 (NCI-H226 lung): 12.2 µM
- TGI (NCI-H226 lung): 40.7 µM
- GI50 (SK-MEL-28 melanoma): 1.62 µM
- TGI (SK-MEL-28 melanoma): 3.6 µM
- GI50 (CAKI-1 renal): 2.21 µM
- TGI (CAKI-1 renal): 5.94 µM
- GI50 (MDA-MB-231 breast): 1.51 µM
- TGI (MDA-MB-231 breast): 3.18 µM
- GI50 (HCC-2998 colon): 1.18 µM
- TGI (HCC-2998 colon): 2.88 µM
- GI50 (SNB-19 CNS): 2.22 µM
- TGI (SNB-19 CNS): 6 µM
- GI50 (UACC-257 melanoma): 4.47 µM
- GI50 (T-47D breast): 13.8 µM
- TGI (T-47D breast): 34.4 µM
- GI50 (HT29 colon): 2.44 µM
- TGI (HT29 colon): > 100 µM
- GI50 (UACC-62 melanoma): 1.71 µM
- TGI (UACC-62 melanoma): 3.28 µM
- GI50 (K-562 leukemia): 3.42 µM
- TGI (K-562 leukemia): > 100 µM
- GI50 (M14 melanoma): 1.53 µM
- TGI (M14 melanoma): 3.23 µM
- GI50 (RXF 393 renal): 23.9 µM
- TGI (RXF 393 renal): 71.2 µM
- GI50 (NCI-H522 lung): 1.76 µM
- TGI (NCI-H522 lung): 3.65 µM
- GI50 (A498 renal): 1.01 µM
- TGI (A498 renal): 2.38 µM
- GI50 (HL-60(TB) leukemia): 22 µM
- TGI (HL-60(TB) leukemia): > 100 µM
- GI50 (ACHN renal): 1.57 µM
- TGI (ACHN renal): 3.37 µM
- GI50 (SF-268 CNS): 22.9 µM
- TGI (SF-268 CNS): 66.4 µM
- GI50 (BT-549 breast): 4.86 µM
- TGI (BT-549 breast): 20.3 µM
- GI50 (TK-10 renal): 6.5 µM
- TGI (TK-10 renal): 12.2 µM
- GI50 (DU-145 prostate): 1.67 µM
- TGI (DU-145 prostate): 3.06 µM
- GI50 (SN12C renal): 1.78 µM
- TGI (SN12C renal): 5.15 µM
- GI50 (UO-31 renal): 1.7 µM
- TGI (UO-31 renal): 5.96 µM
- GI50 (SR leukemia): 6.09 µM
- TGI (SR leukemia): > 100 µM
- GI50 (HCT-15 colon): 1.31 µM
- TGI (HCT-15 colon): 2.7 µM
- GI50 (HOP-92 NSCLC): 3.05 µM
- TGI (HOP-92 NSCLC): 13.1 µM
- GI50 (SF-295 CNS): 1.74 µM
- TGI (SF-295 CNS): 3.37 µM
- GI50 (MALME-3M melanoma): 6.3 µM
- TGI (MALME-3M melanoma): 13.3 µM
- GI50 (MOLT-4 leukemia): 3.08 µM
- TGI (MOLT-4 leukemia): > 20 µM
- GI50 (SNB-75 CNS): 15.4 µM
- TGI (SNB-75 CNS): 37.8 µM
- TGI (HOP-62 NSCLC): 1.14 µM
- GI50 (COLO 205 colon): 1.59 µM
- TGI (COLO 205 colon): 3.39 µM
- GI50 (OVCAR-5 ovarian): 1.86 µM
- TGI (OVCAR-5 ovarian): 4.13 µM

Structure (SMILES): CN(C)[C@@H]1C(=O)C(C(N)=O)=C(O)[C@@]2(O)C(=O)C3=C(O)c4c(O)cc(CN5CCc6ccccc6C5)c(Cl)c4C[C@H]3C[C@@H]12
- GI50 (NCI-H460 lung): 1.79 µM
- TGI (NCI-H460 lung): 3.4 µM
- GI50 (HCT-116 colon): 1.6 µM
- TGI (HCT-116 colon): 2.97 µM
- GI50 (SK-OV-3 ovarian): 1.73 µM
- TGI (SK-OV-3 ovarian): 3.18 µM
- GI50 (M14 melanoma): 1.61 µM
- TGI (M14 melanoma): 3.03 µM
- GI50 (A498 renal): 1.76 µM
- TGI (A498 renal): 3.29 µM
- GI50 (DU-145 prostate): 1.64 µM
- TGI (DU-145 prostate): 3.04 µM
- GI50 (HCT-15 colon): 0.0531 µM
- TGI (HCT-15 colon): 2.36 µM
- GI50 (SW-620 colon): 1.92 µM
- TGI (SW-620 colon): 3.6 µM
- GI50 (786-0 renal): 1.76 µM
- TGI (786-0 renal): 3.3 µM
- GI50 (OVCAR-5 ovarian): 1.62 µM
- TGI (OVCAR-5 ovarian): 3.02 µM

Structure (SMILES): N=C(N)c1ccc(-c2ccc(-c3ccccc3)s2)cc1F
- GI50 (DU-145 prostate): 1.13 µM
- TGI (DU-145 prostate): 2.38 µM
